Laboratory results published in EP2350075B1, “SUBSTITUTED IMIDAZO[1,2B]PYRIDAZINE COMPOUNDS AS TRK KINASE INHIBITORS” (Array Biopharma, Inc., priority 2008, dated 2010).

What follows are molecules tested against T1, human TrkA (Homo sapiens, UniProt P04629) (assay: TrkA ELISA assay). Conditions: 2.5 nM TrkA, 500 µM ATP, 25 minutes at ambient temperature; read-out: TrkA Elisa Enzyme IC50.
T1 construct: histidine-tagged recombinant human TrkA, cytoplasmic domain; His tag; purchased Invitrogen Corp
T1 sequence (P04629 440-796 limits assumed): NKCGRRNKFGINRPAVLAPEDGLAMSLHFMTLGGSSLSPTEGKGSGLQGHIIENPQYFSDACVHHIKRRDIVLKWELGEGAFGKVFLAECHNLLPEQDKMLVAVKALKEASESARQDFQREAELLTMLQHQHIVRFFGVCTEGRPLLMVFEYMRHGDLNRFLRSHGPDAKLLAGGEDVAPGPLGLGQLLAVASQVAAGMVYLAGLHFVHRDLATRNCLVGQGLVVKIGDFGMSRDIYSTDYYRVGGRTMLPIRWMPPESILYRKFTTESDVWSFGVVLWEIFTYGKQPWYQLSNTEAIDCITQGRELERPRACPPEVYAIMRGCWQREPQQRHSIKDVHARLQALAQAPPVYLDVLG
Type: biochemical
Procedure: An enzyme-linked immunosorbant assay (ELISA) was used to assess TrkA kinase activity in the presence of inhibitors. […] The assay buffer consisted of 25 mM MOPS pH 7.5, 0.005% (v/v) Triton X-100 and 5 mM MgCl2. The reaction mixture was removed from the plate by washing with PBS containing 0.1% (v/v) Tween 20. […] After the addition of 1M phosphoric acid, the chromogenic substrate color intensity was quantitated via absorbance at 450 nm. IC50 values were calculated using either a 4 or 5-parameter logistic curve fit.

| IC50 [nM] | Structure (SMILES) |
| --- | --- |
| 2.1 | CS(=O)(=O)Nc1ccc(C(=O)Nc2cnc3ccc(N4CCC[C@@H]4c4cc(F)ccc4F)nn23)cc1 [Example 4, (R)-N-(6-(2-(2,5-difluorophenyl)pyrrolidin-1-yl)imidazo[1,2-b]pyridazin-3-yl)-4-(methylsulfonamido)benzamide] |
| 74.2 | N#Cc1cccc(NC(=O)Nc2cnc3ccc(N4CCC[C@@H]4c4cc(F)ccc4F)nn23)c1 [Example 5, (R)-1-(3-cyanophenyl)-3-(6-(2-(2,5-difluorophenyl)pyrrolidin-1-yl)imidazo[1,2-b]pyridazin-3-yl)urea] |
| 10.7 | N#Cc1ccc(NC(=O)Nc2cnc3ccc(N4CCC[C@@H]4c4cc(F)ccc4F)nn23)cc1 [Example 6, (R)-1-(4-cyanophenyl)-3-(6-(2-(2,5-difluorophenyl)pyrrolidin-1-yl)imidazo[1,2-b]pyridazin-3-yl)urea] |
| 39.4 | O=C(Nc1ccc(Cl)cc1Cl)Nc1cnc2ccc(N3CCC[C@@H]3c3cc(F)ccc3F)nn12 [Example 7, (R)-1-(2,4-dichlorophenyl)-3-(6-(2-(2,5-difluorophenyl)pyrrolidin-1-yl)imidazo[1,2-b]pyridazin-3-yl)urea] |
| 508 | O=C(Nc1cccc(C(F)(F)F)c1)Nc1cnc2ccc(N3CCC[C@@H]3c3cc(F)ccc3F)nn12 [Example 8, (R)-1-(6-(2-(2,5-difluorophenyl)pyrrolidin-1-yl)imidazo[1,2-b]pyridazin-3-yl)-3-(3-(trifluoromethyl)phenyl)urea] |
| 5.5 | COc1ccc(NC(=O)Nc2cnc3ccc(N4CCC[C@@H]4c4cc(F)ccc4F)nn23)cc1 [Example 30, (R)-1-(6-(2-(2,5-difluorophenyl)pyrrolidin-1-yl)imidazo[1,2-b]pyridazin-3-yl)-3-(4-methoxyphenyl)urea] |
| 176 | COc1cc(NC(=O)Nc2cnc3ccc(N4CCC[C@@H]4c4cc(F)ccc4F)nn23)cc(OC)c1OC [Example 32, (R)-1-(6-(2-(2,5-difluorophenyl)pyrrolidin-1-yl)imidazo[1,2-b]pyridazin-3-yl)-3-(3,4,5-trimethoxyphenyl)urea] |
| 901 | Cc1noc(C)c1NC(=O)Nc1cnc2ccc(N3CCC[C@@H]3c3cc(F)ccc3F)nn12 [Example 33, (R)-1-(6-(2-(2,5-difluorophenyl)pyrrolidin-1-yl)imidazo[1,2-b]pyridazin-3-yl)-3-(3,5-dimethylisoxazol-4-yl)urea] |
| 216 | O=C(Nc1cnc2ccc(N3CCCCC3c3cccc(F)c3)nn12)N1CC(O)C1 (stereo not drawn) [Example 43, N-(6-(2-(3-fluorophenyl)piperidin-1-yl)imidazo[1,2-b]pyridazin-3-yl)-3-hydroxyazetidine-1-carboxamide] |
| 8.3 | CC(C)(C)OC(=O)N1CCN(C(=O)Nc2cnc3ccc(N4CCC[C@@H]4c4cc(F)ccc4F)nn23)CC1(C)C [Example 48, (R)-tert-butyl 4-(6-(2-(2,5-difluorophenyl)pyrrolidin-1-yl)imidazo[1,2-b]pyridazin-3-ylcarbamoyl)-2,2-dimethylpiperazine-1-carboxylate] |
| 10.2 | Cn1cc(C(=O)Nc2cnc3ccc(N4CCC[C@@H]4c4cc(F)ccc4F)nn23)ccc1=O [Example 56, (R)-N-(6-(2-(2,5-difluorophenyl)pyrrolidin-1-yl)imidazo[1,2-b]pyridazin-3-yl)-1-methyl-6-oxo-1,6-dihydropyridine-3-carboxamide] |
| 2.3 | Cn1nc(C(=O)Nc2cnc3ccc(N4CCC[C@@H]4c4cc(F)ccc4F)nn23)ccc1=O [Example 57, (R)-N-(6-(2-(2,5-difluorophenyl)pyrrolidin-1-yl)imidazo[1,2-b]pyridazin-3-yl)-1-methyl-6-oxo-1,6-dihydropyridazine-3-carboxamide] |
